In the assay the target is human BACE-1 (Homo sapiens, UniProt P56817). In words: in vitro BACE Assay-1 (CEREP, fluorogenic substrate). Type of assay: biochemical. Conditions: for % Inh @ 1 μM / inhibition at 1 µM: test compound at 1 μM; for % Inh @ 10 μM / inhibition at 10 µM: test compound at 10 μM; for IC50: recombinant enzyme, pH 4.5, 60 min at 37° C. As to the method: This assay was run by CEREP (Catalog Ref. 761-B, Referred to SOP No. 1C131; ERMOLIEFF, J., LOY, J. A., KOELSCH, G. and TANG, J., Proteolytic activation of recombinant pro-memapsin 2 (pro-BACE) studied with new fluorogenic substrates, Biochemistry, (2000) Vol. 39, p. 12450).
More specifically the assay, run at 50 μL in a 96 well plate, evaluated the effect of test compound on the activity of the human BACE-1 quantified by measuring the formation of Mca-S-E-V-N-L-NH2 from Mca-S-E-V-N-L-D-A-E-F-R-K(Dnp)-R—R—NH2, using a recombinant enzyme.
The test compound, reference compound or water (control) was added to a buffer containing 0.09 M sodium acetate (pH 4.5) and 0.25 μg BACE-1. Compound interference with the fluorimetric detection method due to autofluorescence was then checked by measurements at the wavelengths defined to evaluate the enzyme activity. Thereafter, the reaction was initiated by adding 7.5 μM of the substrate Mca-S-E-V-N-L-D-A-E-F-R-K(Dnp)-R—R—NH2 and the mixture was incubated for 60 min at 37° C. For control basal measurement, the substrate was omitted from the reaction mixture. Immediately after the incubation, the fluorescence intensity emitted by the reaction product Mca-S-E-V-N-L-NH2 was measured at λex=320 nm and λem=405 nm using a microplate reader (Ultra, Tecan). The standard inhibitory reference compound was OM99-2, which was tested in each experiment at several concentrations to obtain an inhibition curve from which its IC50 value was calculated.
Representative compounds of the present invention were tested in the assay as described above, with results as listed in Table 3, below.

human BACE-1, sequence (P56817 46-501): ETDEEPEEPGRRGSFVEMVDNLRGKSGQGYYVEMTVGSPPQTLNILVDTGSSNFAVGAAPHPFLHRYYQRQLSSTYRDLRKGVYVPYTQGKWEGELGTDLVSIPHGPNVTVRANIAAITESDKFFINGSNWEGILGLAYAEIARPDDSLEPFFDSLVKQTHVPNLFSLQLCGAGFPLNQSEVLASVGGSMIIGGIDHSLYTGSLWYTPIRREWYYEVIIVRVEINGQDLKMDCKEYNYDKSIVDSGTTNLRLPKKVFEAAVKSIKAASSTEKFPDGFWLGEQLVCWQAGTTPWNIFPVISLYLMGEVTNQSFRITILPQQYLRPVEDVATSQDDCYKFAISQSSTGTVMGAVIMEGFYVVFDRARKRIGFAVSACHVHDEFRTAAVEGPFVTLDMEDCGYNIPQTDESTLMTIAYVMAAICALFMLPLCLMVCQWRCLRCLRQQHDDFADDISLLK

Turning to `CN(C(=O)CCC(c1cc2cc(-c3ccccc3F)ccc2nc1N)C1CCCCC1)C1CCCCC1` (single isomer, unassigned) [Compound 11], the “% Inh @ 1 μM” value worked out at 28%.
Take `Nc1nc2ccc(-c3ccccc3F)cc2cc1C(CCC(=O)NCCO)C1CCOCC1` (stereo not shown) [Compound 1]: the “% Inh @ 10 μM” value amounted to 34%.
`Nc1nc2ccc(-c3ccccc3F)cc2cc1C(CCC(=O)NCC1CC1)C1CCOCC1` (stereo not shown) [Compound 2]: the “% Inh @ 10 μM” value amounted to 59%.
For the compound `CN(CCCC(c1cc2cc(-c3ccccc3F)ccc2nc1N)C1CCOCC1)CC1CC1` (stereo not shown) [Compound 3], the “% Inh @ 10 μM” value came out at 35%.
Same read-out and setting: the result for `CN(CC1CC1)C(=O)CCC(c1cc2cc(-c3ccccc3F)ccc2nc1N)C1CCOCC1` (stereo not shown) [Compound 4] reads 71%.
Regarding `CC(C)(CO)CNCCCC(c1cc2cc(-c3ccccc3F)ccc2nc1N)C1CCOCC1` (stereo not shown) [Compound 6], the half-maximal inhibitory concentration (IC50) is > 5 µM and the inhibition at 10 µM was 43%.
As for `CC(C)(C)CCNC(=O)CCC(c1cc2cc(-c3ccccc3F)ccc2nc1N)C1CCOCC1` (stereo not shown) [Compound 7], the IC50 worked out at 0.26 µM and the inhibition at 10 µM was determined as 83%.
The matching figures for `CC(C)(C)OCCNCCCC(c1cc2cc(-c3ccccc3F)ccc2nc1N)C1CCOCC1` (stereo not shown) [Compound 10]: 0.83 µM and 47%.
The matching figures for `Nc1nc2ccc(-c3ccccc3F)cc2cc1C(CCC(=O)NCC1CCCCC1)C1CCOCC1` (stereo not shown) [Compound 12]: 0.35 µM and 74.5%.
In the case of `CN(CCCC(c1cc2cc(-c3ccccc3F)ccc2nc1N)C1CCOCC1)CC1CCCCC1` (stereo not shown) [Compound 13], the “% Inh @ 10 μM” value is listed as 77%.
In the case of `CC(C)(C)OCCNC(=O)CCC(c1cc2cc(-c3ccccc3F)ccc2nc1N)C1CCOCC1` (stereo not shown) [Compound 15], the half-maximal inhibitory concentration (IC50) came out at 0.54 µM and the inhibition at 10 µM was 113%.
The matching figures for `COc1cc2nc(N)c(C(CCCNCCC(C)(C)C)C3CCOCC3)cc2cc1-c1ccccc1F` (stereo not shown) [Compound 16]: > 0.62 µM and 88%.
As to `COc1cc2nc(N)c(C(CCn3cc(C(C)(C)C)nn3)C3CCOCC3)cc2cc1-c1ccccc1F` (stereo not shown) [Compound 17], the IC50 is 1.4 µM and the inhibition at 10 µM came out at 73%.
With `CN(CC1CCCCC1)C(=O)CCC(c1cc2cc(-c3ccccc3F)ccc2nc1N)C1CCOCC1` (stereo not shown) [Compound 18], the “% Inh @ 10 μM” value turned out to be 77%.
For the compound `COc1cc2nc(N)c(C(CCC(=O)NCCC(C)(C)C)C3CCOCC3)cc2cc1-c1ccccc1F` (stereo not shown) [Compound 19], the “% Inh @ 10 μM” value amounted to 14%.
On to `COc1ccccc1-c1cc2cc(C(CCn3cc(C(C)(C)C)nn3)C3CCOCC3)c(N)nc2cc1OC` (stereo not shown) [Compound 20], for which the half-maximal inhibitory concentration (IC50) is 0.89 µM and the inhibition at 10 µM was 92%.
Consider `Nc1nc2ccc(-c3cccs3)cc2cc1C(CCC(=O)NC12CC3CC(CC(C3)C1)C2)C1CCOCC1` (stereo not shown) [Compound 21], for which the IC50 came out at 0.69 µM and the inhibition at 1 µM was 87%.
Take `CCOc1cc2nc(N)c(C(CCn3cc(C(C)(C)C)nn3)C3CCOCC3)cc2cc1-c1ccccc1F` (stereo not shown) [Compound 22, 3-[3-(4-tert-Butyl-[1,2,3]triazol-1-yl)-1-(tetrahydro-pyran-4-yl)-propyl]-7-ethoxy-6-(2-fluoro-phenyl)-quinolin-2-ylamine]: the half-maximal inhibitory concentration (IC50) was 0.15 µM and the inhibition at 10 µM stood at 65%.
Regarding `Nc1nc2ccc(-c3ccccc3F)cc2cc1C(CCC(=O)NC12CC3CC(CC(C3)C1)C2)C1CCOCC1` (stereo not shown) [Compound 23], the half-maximal inhibitory concentration (IC50) was 0.57 µM and the inhibition at 1 µM was 97%.
In the case of `Cn1ccnc1CN(CCC(C)(C)C)C(=O)CCC(c1cc2cc(-c3ccc[nH]3)ccc2nc1N)C1CCOCC1` (stereo not shown) [Compound 24], the IC50 stood at 1.4 µM and the “% Inh @ 10 μM” value is 93%.
On to `Cn1ccnc1CN(CCC(C)(C)C)C(=O)CCC(c1cc2cc(-c3ccccc3)ccc2nc1N)C1CCOCC1` (stereo not shown) [Compound 25], for which the IC50 is 0.32 µM and the “% Inh @ 10 μM” value is reported as 72%.
`Cn1ccnc1N(CCC(C)(C)C)C(=O)CCC(c1cc2cc(-c3ccccn3)ccc2nc1N)C1CCOCC1` (stereo not shown) [Compound 27]: the half-inhibitory concentration (IC50) worked out at 1.8 µM and the inhibition at 10 µM stood at 91%.
The matching figures for `CC(C)(C)CCN(CCCC(c1cc2cc(-c3ccccc3F)ccc2nc1N)C1CCOCC1)Cc1ccccn1` (stereo not shown) [Compound 28]: 0.88 µM and 74%.
Consider `Cn1ccnc1CN(CCCC(c1cc2cc(-c3ccccc3F)ccc2nc1N)C1CCOCC1)CCC(C)(C)C` (stereo not shown) [Compound 29], for which the half-inhibitory concentration (IC50) stood at 1.5 µM and the “% Inh @ 1 μM” value turned out to be 54%.
In the case of `Cn1ccnc1CN(CCC(C)(C)C)C(=O)CCC(c1cc2cc(-c3cccs3)ccc2nc1N)C1CCOCC1` (stereo not shown) [Compound 31, 4-(2-Amino-6-thiophen-2-yl-quinolin-3-yl)-N-(3,3-dimethyl-butyl)-N-(1-methyl-1H-imidazol-2-ylmethyl)-4-(tetrahydro-pyran-4-yl)-butyramide], the concentration for half-maximal inhibition (IC50) is 0.42 µM, the inhibition at 1 µM came out at 79% and the inhibition at 10 µM is 98%.
As to `CC(C)(C)CCN(Cc1ccccc1)C(=O)CCC(c1cc2cc(-c3ccccc3F)ccc2nc1N)C1CCOCC1` (stereo not shown) [Compound 34], the 50% inhibitory concentration (IC50) is 0.39 µM and the inhibition at 10 µM amounted to 68%.
The matching figures for `CC(C)(C)CCN(Cc1ccccn1)C(=O)CCC(c1cc2cc(-c3ccccc3F)ccc2nc1N)C1CCOCC1` (stereo not shown) [Compound 35]: 0.33 µM and 116%.
In the case of `COc1ccccc1-c1ccc2nc(N)c(C(CCCN(CCC(C)(C)C)c3nccn3C)C3CCOCC3)cc2c1` (stereo not shown) [Compound 36], the concentration for half-maximal inhibition (IC50) worked out at 0.5 µM and the inhibition at 1 µM was determined as 76%.
For `Cn1ccnc1CN(CCC(C)(C)C)C(=O)CCC(c1cc2cc(-c3ccc(F)cc3)ccc2nc1N)C1CCOCC1` (stereo not shown) [Compound 37], the “% Inh @ 10 μM” value was 82%.
`Cn1ccnc1N(CCC(C)(C)C)C(=O)CCC(c1cc2cc(-c3cccc(F)c3)ccc2nc1N)C1CCOCC1` (stereo not shown) [Compound 38]: the IC50 came to 0.47 µM and the inhibition at 10 µM is 69%.
For the compound `Cn1ccnc1CN(CCC(C)(C)C)C(=O)CCC(c1cc2cc(-c3ccccc3F)ccc2nc1N)C1CCOCC1` (stereo not shown) [Compound 39], the IC50 turned out to be 0.35 µM and the “% Inh @ 1 μM” value was 93%.
For the compound `Nc1nc2ccc(-c3ccccc3F)cc2cc1C(CCC(=O)N(CCN1CCCC1)C1CCCCC1)C1CCOCC1` (stereo not shown) [Compound 41], the IC50 came to 0.45 µM and the inhibition at 10 µM was found to be 65%.
Take `CC(C)(C)CCN(Cc1cncs1)C(=O)CCC(c1cc2cc(-c3ccccc3F)ccc2nc1N)C1CCOCC1` (stereo not shown) [Compound 42]: the half-maximal inhibitory concentration (IC50) amounted to 0.32 µM and the inhibition at 10 µM turned out to be 65%.
Regarding `CC(C)(C)CCN(CCCC(c1cc2cc(-c3ccccc3F)ccc2nc1N)C1CCOCC1)CCN1CCOCC1` (stereo not shown) [Compound 43, 3-[4-[(3,3-Dimethyl-butyl)-(2-morpholin-4-yl-ethyl)-amino]-1-(tetrahydro-pyran-4-yl)-butyl]-6-(2-fluoro-phenyl)-quinolin-2-ylamine], the inhibition at 10 µM was found to be 78%.
`COc1ccccc1-c1ccc2nc(N)c(C(CCC(=O)N(CCC(C)(C)C)Cc3nccn3C)C3CCOCC3)cc2c1` (stereo not shown) [Compound 45]: the IC50 stood at 0.53 µM and the “% Inh @ 1 μM” value turned out to be 94%.

Broadly, the IC50 is the midpoint of a concentration-inhibition curve. As usually defined, the inhibition is the drop in the measured response relative to a control, in per cent.

The values are drawn from patent publication US7786116B2, “2-amino-quinoline derivatives useful as inhibitors of β-secretase (BACE)” (Janssen Pharmaceutica N.V., priority 2008, dated 2010).
